In patent US10781224B2, “Bis(oxymethyl)phosphinic acid and biogenic metal salts thereof as regulators of plant growth and development” (priority 2016, dated 2020):

System: winter wheat (Vershin variety)
Test: Winter wheat seed treatment with BHMPA salts: germinating power (length and mass of roots and sprouts)
Format: in vivo
Protocol: Experimental versions—soaking seeds in BHMPA solutions and solutions of BHMPA Ca, Mg, Na, Co, Mn, Cu, and Zn salts at 1·10^−6-1·10^−12% concentrations (doses). The studies were conducted in laboratory in Petri dishes; seed bed—two layers of filter paper. 50 seeds soaked in water (control) and in the solutions of the tested compounds (experimental) were placed into each dish. Wheat, corn, and rice seeds were exposed for one hour.
Seed germination energy and rate were calculated in percent as an arithmetic mean of the four experimental results (germination energy on the 4th day, wheat germination on the 8th day, rice and corn germination—on the 7th day). Germination was determined based on the germinating power indicators (length of the roots and sprouts and their wet and dry mass per 100 shoots).
The effect of pre-sowing seed treatment with the claimed BHMPA salts of biogenic metals was studied on winter wheat (Vershin variety), corn (Krasnodar 385 MV variety), and rice (Diamant variety).
The above data describe the seed viability only at the initial stage of germination, while the germination ability at the later stage of germination is defined by the initial germinating power. The method for the determination of the germinating power comprises measuring the height of the sprouts and primary roots, as well as the biomass and the dry mass thereof per 100 seedlings. [M. A. Kartuzova. Initial Germinating Power as Method of Biological Assessment of Seed Quality. Selection and Seed Farming, #2, 1953].

[1] = comparative study, 1·10^−10% solution

O.O.O=P([O-])(CO)CO.O=P([O-])(CO)CO.[Co+2] [Co-salt, Cobalt BHMPA Salt]
Length, root (1·10^−6% solution): 6.0 cm
Length, root, + % to control (1·10^−6% solution): −5%
Length, sprout (1·10^−6% solution): 5.1 cm
Length, sprout, + % to control (1·10^−6% solution): −4%
Mass, dry, root (1·10^−6% solution): 0.43 g/100 plantlings
Mass, dry, root, + % to control (1·10^−6% solution): −6.5%
Mass, dry, sprout (1·10^−6% solution): 0.41 g/100 plantlings
Mass, dry, sprout, + % to control (1·10^−6% solution): −9%
Mass, wet, root (1·10^−6% solution): 2.99 g/100 plantlings
Mass, wet, root, + % to control (1·10^−6% solution): 3.5%
Mass, wet, sprout (1·10^−6% solution): 3.30 g/100 plantlings
Mass, wet, sprout, + % to control (1·10^−6% solution): −3.5%
Length, root (1·10^−7% solution): 6.3 cm
Length, root, + % to control (1·10^−7% solution): 0%
Length, sprout (1·10^−7% solution): 5.4 cm
Length, sprout, + % to control (1·10^−7% solution): 2%
Mass, dry, root (1·10^−7% solution): 0.50 g/100 plantlings
Mass, dry, root, + % to control (1·10^−7% solution): 9%
Mass, dry, sprout (1·10^−7% solution): 0.45 g/100 plantlings
Mass, dry, sprout, + % to control (1·10^−7% solution): 0%
Mass, wet, root (1·10^−7% solution): 3.06 g/100 plantlings
Mass, wet, root, + % to control (1·10^−7% solution): 6%
Mass, wet, sprout (1·10^−7% solution): 3.47 g/100 plantlings
Mass, wet, sprout, + % to control (1·10^−7% solution): 1.5%
Length, root (1·10^−8% solution): 6.4 cm
Length, root, + % to control (1·10^−8% solution): 1.6%
Length, sprout (1·10^−8% solution): 5.5 cm
Length, sprout, + % to control (1·10^−8% solution): 4%
Mass, dry, root (1·10^−8% solution): 0.54 g/100 plantlings
Mass, dry, root, + % to control (1·10^−8% solution): 17%
Mass, dry, sprout (1·10^−8% solution): 0.53 g/100 plantlings
Mass, dry, sprout, + % to control (1·10^−8% solution): 18%
Mass, wet, root (1·10^−8% solution): 3.29 g/100 plantlings
Mass, wet, root, + % to control (1·10^−8% solution): 14%
Mass, wet, sprout (1·10^−8% solution): 3.74 g/100 plantlings
Mass, wet, sprout, + % to control (1·10^−8% solution): 9%
Length, root (1·10^−9% solution): 6.5 cm
Length, root, + % to control (1·10^−9% solution): 3%
Length, sprout (1·10^−9% solution): 5.7 cm
Length, sprout, + % to control (1·10^−9% solution): 7.5%
Mass, dry, root (1·10^−9% solution): 0.55 g/100 plantlings
Mass, dry, root, + % to control (1·10^−9% solution): 19.5%
Mass, dry, sprout (1·10^−9% solution): 0.57 g/100 plantlings
Mass, dry, sprout, + % to control (1·10^−9% solution): 27%
Mass, wet, root (1·10^−9% solution): 3.35 g/100 plantlings
Mass, wet, root, + % to control (1·10^−9% solution): 16%
Mass, wet, sprout (1·10^−9% solution): 4.04 g/100 plantlings
Mass, wet, sprout, + % to control (1·10^−9% solution): 18%
Length, root (1·10^−10% solution): 6.6 cm
Length, root, + % to control (1·10^−10% solution): 5%
Length, sprout (1·10^−10% solution): 6.1 cm
Length, sprout, + % to control (1·10^−10% solution): 15%
Mass, dry, root (1·10^−10% solution): 0.56 g/100 plantlings
Mass, dry, root, + % to control (1·10^−10% solution): 22%
Mass, dry, sprout (1·10^−10% solution): 0.67 g/100 plantlings
Mass, dry, sprout, + % to control (1·10^−10% solution): 49%
Mass, wet, root (1·10^−10% solution): 3.57 g/100 plantlings
Mass, wet, root, + % to control (1·10^−10% solution): 23.5%
Mass, wet, sprout (1·10^−10% solution): 4.18 g/100 plantlings
Mass, wet, sprout, + % to control (1·10^−10% solution): 22%
Length, root (1·10^−11% solution): 6.5 cm
Length, root, + % to control (1·10^−11% solution): 3%
Length, sprout (1·10^−11% solution): 5.9 cm
Length, sprout, + % to control (1·10^−11% solution): 11%
Mass, dry, root (1·10^−11% solution): 0.54 g/100 plantlings
Mass, dry, root, + % to control (1·10^−11% solution): 17%
Mass, dry, sprout (1·10^−11% solution): 0.56 g/100 plantlings
Mass, dry, sprout, + % to control (1·10^−11% solution): 24%
Mass, wet, root (1·10^−11% solution): 3.33 g/100 plantlings
Mass, wet, root, + % to control (1·10^−11% solution): 15%
Mass, wet, sprout (1·10^−11% solution): 3.78 g/100 plantlings
Mass, wet, sprout, + % to control (1·10^−11% solution): 10.5%
Length, root (1·10^−12% solution): 6.2 cm
Length, root, + % to control (1·10^−12% solution): −1.5%
Length, sprout (1·10^−12% solution): 5.4 cm
Length, sprout, + % to control (1·10^−12% solution): 2%
Mass, dry, root (1·10^−12% solution): 0.52 g/100 plantlings
Mass, dry, root, + % to control (1·10^−12% solution): 13%
Mass, dry, sprout (1·10^−12% solution): 0.48 g/100 plantlings
Mass, dry, sprout, + % to control (1·10^−12% solution): 7%
Mass, wet, root (1·10^−12% solution): 3.06 g/100 plantlings
Mass, wet, root, + % to control (1·10^−12% solution): 6%
Mass, wet, sprout (1·10^−12% solution): 3.49 g/100 plantlings
Mass, wet, sprout, + % to control (1·10^−12% solution): 2%
Length, root [1]: 10.4 cm
Length, root, + % to control [1]: 20%
Length, sprout [1]: 7.4 cm
Length, sprout, + % to control [1]: 19%
Mass, dry, root [1]: 0.68 g/100 plantlings
Mass, dry, root, + % to control [1]: 10%
Mass, dry, sprout [1]: 0.55 g/100 plantlings
Mass, dry, sprout, + % to control [1]: 8%
Mass, wet, root [1]: 5.97 g/100 plantlings
Mass, wet, root, + % to control [1]: 65%
Mass, wet, sprout [1]: 5.16 g/100 plantlings
Mass, wet, sprout, + % to control [1]: 30%
